This is an account of results in paper PMC8582737 (International Journal of Molecular Sciences, 2021).

By solubility is commonly meant how much of the substance goes into solution per volume.

The conditions of data set [1]: cited from earlier work.
A short description of data set [2]: Solubility of KTZ, shake-flask method. It counts as physicochemical. The conditions noted are these: for solubility at 24 h: 25 °C; for Improvement of KTZ solubility by TTO: 5% TTO. How it is done:
Mixtures were mechanically shaken for 24 h at 25 °C ± 0.5 °C and allowed to stand for 24 h to attain equilibrium. Then, the samples were centrifuged at 4000 rpm for 15 min, followed by filtration through a CA membrane filter (0.45 μm), diluted appropriately with methanol, and analyzed by the HPLC method at 231 nm against a standard.

Values after ≈ are worked out from the molar mass of the structure shown.

With `CC(=O)N1CCN(c2ccc(OCC3COC(Cn4ccnc4)(c4ccc(Cl)cc4Cl)O3)cc2)CC1` (centres unmarked) [KTZ, Ketoconazole], the Solubility in water in data set [1] was 0.0866 to 40.0 µg/mL. The “pH of highest stability” value in data set [1] is given as 6–8. Also, the solubility at 24 h in data set [2] (Castor oil) amounted to 93.5 ± 8.39 µg/mL (≈ 176 µM); in data set [2] (Isopropyl myristate), 94 ± 3.26 µg/mL (≈ 177 µM); in data set [2] (Paraffin oil), 17 ± 2.84 µg/mL (≈ 32 µM); in data set [2] (Water) it was 9.56 ± 0.09 µg/mL (≈ 18 µM); in data set [2] (castor oil with 5% TTO, oil or lipid, thermodynamic from solid, Castor oil + TTO 5%), 155 ± 7.94 µg/mL; in data set [2] (isopropyl myristate with 5% TTO, oil or lipid, thermodynamic from solid, Isopropyl myristate + TTO 5%) it was 131 ± 5.13 µg/mL. The solubility at 24 h in data set [2] (paraffin oil with 5% TTO, Paraffin oil + TTO 5%) was 80.1 ± 6.5 µg/mL; in data set [2] (water with 5% TTO, aqueous with cosolvent or surfactant or cyclodextrin, thermodynamic from solid, Water + TTO 5%), 35.7 ± 4.59 µg/mL. Further, the “Improvement of KTZ solubility by TTO” value was “about 2 fold” in data set [2] (castor oil), “about 2 fold” in data set [2] (isopropyl myristate), 5 fold in data set [2] (paraffin oil) and around 4 fold in data set [2] (water).
